Measured values taken from patent US12358960B2, “Selective targeting of ubiquitin- and ubiquitin-like E1-activating enzymes by structurally-stabilized peptides” (Dana-Farber Cancer Institute, Inc., priority 2019, dated 2025).
Bridge positions count the residues as written; N and C are the ends. Square brackets hold non-standard residues; d marks the D form. Peptide text beside a SMILES is read from it. R8 = C=CCCCCCC[C@@](C)(N)C(=O)O; S5 = C=CCCC[C@](C)(N)C(=O)O; Nle = CCCC[C@H](N)C(=O)O

Tested on: ubiquitin cascade E1 (UBA1), E2 (UBE2A), E3 (HDM2), substrate p53
Experiment: In vitro ubiquitin pathway reconstitution assay (p53 ubiquitination)
Format: biochemical
Settings: peptide 30 μM; for ubiquitination of p53 with E2 pre-activated with Ub: pre-activated E2 instead of uncharged E2 and Ub; for ubiquitination of p53 with E1, E2, E3, Ub and ATP: unactivated E2
Method: In Vitro Ubiquitin Pathway Reconstitution Assay: Reactions containing recombinant His-p53 (0.1 μM), in the presence or absence of peptide (30 μM), UBA1 (0.1 μM), UBE2D (1 μM), HDM2 (1 μM), ubiquitin (1 μM) and ATP (10 mM) (all Boston Biochem K-200B), preactivated Ub-UBEA2 (3 μM) (Boston Biochem E2-802), and USP7 (1 μM) (BostonBiochem E-519), as indicated, were mixed and incubated for 2 h at 37° C. in a final volume of […] followed by denaturation by boiling in SDS-containing loading dye for 10 min at 90° C. Samples were resolved by […] gel electrophoresis and transferred to nitrocellulose membrane. Membranes were blocked with 3% milk for 1 h, incubated overnight in PBS containing 3% BSA and mouse p53 antibody (Boston Biochem K-200B) at a 1:1000 dilution, washed in PBS containing 0.1% Tween-20, and then incubated in PBS containing 3% BSA and anti-mouse secondary antibody (BioRad AAC10P) at a 1:5000 dilution for 1 hour at room temperature. Membranes were again washed in PBS containing 0.1% Tween-20 and imaged using Amersham ECL Prime (GE Life Sciences) on an Amersham Imager 680 (GE Life Sciences).

CCCC[C@H](NC(C)=O)C(=O)N[C@@H](CO)C(=O)N[C@H](C(=O)N1CCC[C@H]1C(=O)N[C@]1(C)CCCCCCC=CCCC[C@@](C)(C(=O)N[C@@H](Cc2ccccc2)C(=O)N[C@@H](CCCCN)C(=O)N[C@@H](CCCNC(=N)N)C(=O)N[C@@H](CC(C)C)C(=O)N[C@@H](CCC(N)=O)C(N)=O)NC(=O)[C@H](CCCNC(=N)N)NC(=O)[C@H](CCCC)NC(=O)[C@H](CC(C)C)NC(=O)[C@H](CCCNC(=N)N)NC(=O)[C@H](CCCNC(=N)N)NC(=O)[C@H](CCCNC(=N)N)NC1=O)[C@@H](C)O [SAH-UBE2A-11, BSTPX1RRRLBRX2FKRLQ] (Ac-[Nle]STP[R8]RRRL[Nle]R[S5]FKRLQ-NH2; staple 5-12)
ubiquitination of p53 with E2 pre-activated with Ub: no effect on the ubiquitination of p53 | ubiquitination of p53 with E2 pre-activated with Ub (listed as SAH-UBE2A): circumvents the inhibitory activity of SAH-UBE2A | ubiquitination of p53 with E1, E2, E3, Ub and ATP: inhibited the ubiquitination of p53 protein | ubiquitination of p53 with E1, E2, E3, Ub and ATP (listed as SAH-UBE2A): inhibits the ubiquitination of p53
